# Patent US10869849B2, “Substituted aromatic compounds and pharmaceutical compositions for tissue self-repair and regeneration” (Liminal BioSciences Limited, priority 2014, dated 2020)
# Where a name gives a salt, the structure may show the parent alone.
# Assays:
# [1] = test system: Hepatocyte Growth Factor (HGF); test: HGF mRNA expression in TGF-β1-treated normal human dermal fibroblasts (real-time PCR); type: cell-based; settings: NHDF + rhTGF-β1 (10 ng/ml), 24 h, TGF-β1 control = 1.00, untreated = 7.23, read-out: HGF Relative Quantitation; for fold induction at 100 µM: compound 100 μM; for fold induction at 250 µM: compound 250 μM
# [2] = test system: Hepatocyte Growth Factor (HGF); test: as above; type: cell-based; settings: compound 500 μM, 24 h; for fold induction at 500 µM: Homo sapiens, NHDF + rhTGF-β1 (10 ng/ml), TGF-β1 control = 1.00, untreated = 7.23, read-out: HGF Relative Quantitation
# Protocol: (§1) Experiments were undertaken to determine the effect of compounds on hepatocyte growth factor expression in vitro normal human dermal fibroblasts (NHDF) from adult donor (Clonetics #CC-2511). NHDF were starved overnight in DMEM/F12+0.5% FBS and treated with or without rhTGF-β1 (10 ng/ml) and compound I (500 μM) for 24 h. RNA was isolated with miRNeasy® kit (QIAGEN®), including on-column DNase digestion step. cDNA synthesis was done (0.5 μg RNA/reaction) using the RT^2 First Strand kit (QIAGEN® #330401). Real-Time PCR was performed as described in the RT^2 Profiler PCR Array handbook on a AB-7900HT real-time cycler. Real-Time PCR data was analyzed using the ΔΔCt method on the RT^2 Profiler PCR Array Data Analysis Web Portal. All Ct values >35 or non amplified were changed to the cut-off value of 35. The housekeeping genes used for normalization are GAPDH and RPLP0. The control group is TGF-β1 treated cells.
# [3] = test system: LOX, MMP13, PLAU (uPA), serpin E1, TIMP3 and ILK; test: Expression of regeneration markers in TGF-β1-injured NHDF (FIG. 2); type: cell-based, human; settings: rhTGF-β1 (10 ng/ml), compound 500 μM, 24 h
# Protocol: as §1, with “cells. An experiment was undertaken to determine the effect of compounds on the expression of regeneration markers. This experiment was performed with NHDF (Normal Human Dermal Fibroblasts) and human epithelial cells (renal tubular epithelial cells, HK-2) involved in tissue regeneration after single, multiple or constant injury. Injury was simulated by incubation of the cells with TGF-β1. […]” for “cells.”
# [4] = test system: LOX, MMP1, MMP2, MMP9, MMP13, TIMP3 and PLAT (tPA); test: Expression of regeneration markers in TGF-β1-injured HK-2 epithelial cells (FIG. 3); type: cell-based, human; settings: HK-2 cells, rhTGF-β1 (10 ng/ml), compound 500 μM, 24 h
# Serpin A1 (AAT) = test: AAT mRNA expression, qPCR-panel on NHDF (FIG. 4); type: cell-based, human; settings: injured NHDF cells
# Protocol: as §1, with “cells. As mentioned above, AAT can induce nerve regeneration. […] Compound I is representative of the compounds of formula I disclosed herein. Therefore, the compounds of formula I disclosed herein may increase regeneration of nerves via the production of endogenous AAT at the site of injury.” for “cells.”
# injured kidney = test: Organ function (GFR) of an injured kidney (FIG. 5); type: in vivo
smiles,measurement,setting,value
"CCCCCc1cc(CC(=O)O)cc(CCCCC)c1O [Compound XVIII, Sodium Salt of 2-(4-Hydroxy-3,5-dipentylphenyl)acetic acid]",fold induction at 25 µM,[1]; compound 25 μM,1.4
"CCCC/C=C/c1cccc(CC(=O)O)c1 [Compound V, Sodium Salt of 2-(3-(Hex-1-enyl]phenyl)acetic acid]",fold induction at 100 µM,[1],2.73
"CCCCCc1cc(O)cc(CC(=O)O)c1 [Compound VII, Sodium Salt of 3-hydroxy-5-pentylphenylacetic acid]",fold induction at 500 µM,[2],2.66
"CCCCCc1cc(CCCCC)c(F)c(CC(=O)O)c1 [Compound XXXII, Sodium Salt of 2-(2-Fluoro-3,5-dipentylphenyl)acetic Acid]",fold induction at 10 µM,[1]; compound 10 μM,1.73
"CCCCCc1cc(CCCCC)cc(CC(=O)[O-])c1.[Na+] [Compound XIV, Sodium 2-[3,5-Dipentylphenyl]acetate]",melting point,,225 to 230 °C
"CCCCCc1cccc(CCC(=O)O)c1 [Compound II, Sodium Salt of 3-(3-pentylphenyl)propionic acid]",fold induction at 250 µM,[1],1.37
"CCCCCc1cc(CC(=O)O)ccc1F [Compound XII, Sodium Salt of 2-(4-Fluoro-3-pentylphenyl)acetic acid]",fold induction at 500 µM,[2],2.47
"CCCCc1cccc(CCC(=O)O)c1 [Compound III, Sodium Salt of 3-(3-butylphenyl)propionic acid]",fold induction at 500 µM,[2],2.41
"CCCCCCc1cccc(CC(=O)O)c1 [Compound VI, Sodium Salt of 2-(3-Hexylphenyl)acetic acid]",fold induction at 100 µM,[1],2.77
"CCCCCc1cccc(C(F)C(=O)O)c1 (racemic) [Compound XIII, Sodium Salt of (RS)-2-Fluoro-2-(3-pentylphenyl)acetic acid]",fold induction at 500 µM,[2],1.71
"CCCCCc1cc(F)cc(CC(=O)O)c1 [Compound X, Sodium Salt of 2-(3-fluoro-5-pentylphenyl)acetic acid]",fold induction at 250 µM,[1],3.06
"CCC/C=C/c1cccc(CC(=O)O)c1 [Compound IV, Sodium Salt of E-(3-pent-1-enyl-phenyl)acetic acid]",fold induction at 500 µM,[2],3.8
"CCCCCc1cccc(CC(=O)O)c1F [Compound XI, Sodium Salt of 2-(2-Fluoro-3-pentylphenyl)acetic acid]",fold induction at 250 µM,[1],3.38
"CCCCCc1cccc(CC(=O)[O-])c1.[Na+] [Compound I, Sodium Salt of (3-pentylphenyl)acetic acid]",fold induction at 500 µM,[2],4.23
same,"expression of HGF (FIG. 1), result in words","[2]; NHDF, rhTGF-β1 (10 ng/ml)",increases the expression of HGF
same,"expression level of regeneration markers LOX, MMP13, PLAU (uPA), serpin E1, TIMP3 and ILK",[3],all expressed at a normal level
same,"expression level of regeneration markers LOX, MMP1, MMP2, MMP9, MMP13, TIMP3 and PLAT (tPA)",[4],all expressed at a level close to the normal level observed in healthy cells
same,AAT mRNA expression,Serpin A1 (AAT),increase AAT mRNA expression
same,organ function (GFR),injured kidney,increase in organ function (GFR)
"CCCCCc1cc(CC(=O)O)ccc1O [Compound VIII, Sodium Salt of 2-(4-Hydroxy-3-pentylphenyl)acetic acid]",fold induction at 500 µM,[2],1.44
"CCCCCc1cc(CCCCC)cc(C(C)(C)C(=O)O)c1 [Compound XXXIII, Sodium Salt of 2-(3,5-Dipentylphenyl)-2-methylpropanoic Acid]",fold induction at 6 µM,[1]; compound 6 μM,1.54
